According to patent publication US9605296B2, “Fluorogenic peptidase substrate” (ECOLE NORMALE SUPERIEURE DE LYON, priority 2011, dated 2017):

How the values were obtained:
[1] = Solubility in water / aqueous media (observation); conditions: solid tosylate; dissolves easily in MeOH then dilutable with water
[2] = molecular target: T1, microsomal leucine aminopeptidase (EC 3.4.11.2; PLA) (Sus scrofa, UniProt P15145); test: Enzymatic test: fluorescence of probes incubated with microsomal leucine aminopeptidase (PLA) in multi-well plates; type: biochemical, pig; conditions: for Delay for obtaining an intense increase in the signal: different probe concentrations, FIG. 5, generally less than 100 minutes
T1 construct: The microsomal leucine aminopeptidase (EC 3.4.11.2) of pig kidney was purchased from Sigma; purchased Sigma 069K7356; host or cells: pig kidney (tissue-derived enzyme)
T1 sequence (P15145 1-963): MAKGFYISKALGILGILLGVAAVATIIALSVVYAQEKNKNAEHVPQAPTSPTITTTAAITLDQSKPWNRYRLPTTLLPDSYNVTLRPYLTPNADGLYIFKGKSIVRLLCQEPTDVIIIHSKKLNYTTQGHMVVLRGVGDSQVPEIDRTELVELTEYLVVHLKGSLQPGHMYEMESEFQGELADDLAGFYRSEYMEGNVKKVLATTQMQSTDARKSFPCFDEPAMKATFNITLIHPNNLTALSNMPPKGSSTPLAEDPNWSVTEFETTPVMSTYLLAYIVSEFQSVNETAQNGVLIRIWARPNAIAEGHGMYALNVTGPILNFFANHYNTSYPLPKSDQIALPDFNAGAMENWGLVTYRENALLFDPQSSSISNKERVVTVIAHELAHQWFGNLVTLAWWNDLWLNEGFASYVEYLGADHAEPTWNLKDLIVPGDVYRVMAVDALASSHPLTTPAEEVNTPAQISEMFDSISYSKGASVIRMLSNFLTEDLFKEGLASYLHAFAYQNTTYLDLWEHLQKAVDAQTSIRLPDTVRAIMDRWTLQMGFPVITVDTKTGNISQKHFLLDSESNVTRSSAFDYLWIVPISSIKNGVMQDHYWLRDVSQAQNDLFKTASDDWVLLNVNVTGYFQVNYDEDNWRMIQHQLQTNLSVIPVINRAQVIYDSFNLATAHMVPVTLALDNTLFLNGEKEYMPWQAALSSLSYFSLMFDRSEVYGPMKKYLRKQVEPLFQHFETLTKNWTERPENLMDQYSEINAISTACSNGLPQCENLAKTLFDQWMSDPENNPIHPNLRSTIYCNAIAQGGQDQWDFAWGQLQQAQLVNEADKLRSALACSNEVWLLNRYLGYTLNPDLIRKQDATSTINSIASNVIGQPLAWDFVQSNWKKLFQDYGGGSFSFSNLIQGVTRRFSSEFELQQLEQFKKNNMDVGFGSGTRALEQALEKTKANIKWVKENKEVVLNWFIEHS
Method: Preamble: Within the scope of the invention, upon applying the enzymatic tests, once the minimum, concentration allowing triggering of crystal nucleation is reached, a solid fluorophore may first be deposited on the walls of the receptacle (a well in a multi-well plate), before beginning to deposit on the bottom of the receptacle. The delay associated with the triggering of nucleation (≧10 mins) is well seen on the kinetic curves in the figures shown. The enzymatic tests carried out are illustrated with the appended figures.
(§1) The probes I.1 and I.2 were evaluated by incubation with the target enzyme, microsomal leucine aminopeptidase (EC 3.4.11.2; “PLA”; commercial) in an in vitro medium in multi-well micro-plates designed for fluorescence readers.
The main tests were conducted at 25° C., in solutions buffered to pH 7.4 (physiological pH). […] A temperature of 25° C. was therefore preferred.
(§2) All the final solutions for the enzymatic tests were buffered to a pH varying from 7.4 to 7.6 (depending on the room temperature) with a 25 mM (total concentration) of Tris/Tris.HCl buffer, containing 11 mM of NaCl. The microsomal leucine aminopeptidase (EC 3.4.11.2) of pig kidney was purchased from Sigma (catalogue no. 069K7356) in the form of a suspension in ammonium sulfate (3.5 M) containing MgCl2 (10 mM), with 3.5 mg·mL^−1 of protein contents and 10-40 U/mg of protein, as determined for the standard substrate, leucyl p-nitroanilide, and was stored in a fridge at 4° C. for a maximum of 40 days before its use. […] Analyses Carried Out:
(§3) The analyses were carried out with reading of the fluorescence values, measured in RFU, versus time. The analyses were conducted in black polypropylene plates with 96 (Corning, Corning Inc.) or with 384 (Nunclon, Nunc Inc.) wells, and recorded on a microplate fluorimeter (Mithras LB940 from Berthold Technologies). This fluorimeter was used in a so-called repeated mode, where the fluorescence was measured with a reading, here selected to be 3 seconds per well, the excitation beam with a diameter of 4 mm being centered in the well. […] It should be noted that this mode of use is close to the operation of optical high throughput screening by fluorescence, which is one of the applications envisioned for these types of probes. […] In the scanning mode, the wells were divided into a square read-out grid, typically covering the well with a resolution of 8×8 to 15×15 pixels, each of the pixels being read between 0.1 and 0.3 s. This scanning mode partly removes the errors and the read-out noise of the total fluorescence of the well subject to the repeated mode, subsequently to the tendency of the fluorophore once it is released of depositing a first phase on the walls. The scanning mode as implemented here is also slower and less suitable for qualitatively following reaction kinetics. It should be noted that this mode of use is close to the operation of cell counting, which is a second application envisioned for these types of probes.
The excitation wavelength for the probes I.1 and I.2 (based on HPQ) was set to 355 nm, and the localized emission wavelength was set to 510 nm, since the fluorimeter used has filters of the bandpass type for selecting these wavelengths with a bandwidth of 14 nm for the excitation beam and of 10 nm for the emission one.
The enzyme was added last to the prepared wells. After adding the enzyme, the contents of the well were sucked up and released twice with a pipette, in order to homogenize as much as possible the mixture. […] The addition of the enzyme well by well was accomplished by observing the reading delay between the wells, so that the reaction times of each well were the same for each readout of the plate in order to allow comparison of the acquired data for different wells (in these experiments, there was a delay between 3 seconds and 20 seconds, between the readout of the neighboring wells, to be multiplied by up to 77 wells read by acquisition at a time t). […]

[3] = Stability controls: fluorescence of probes in buffered aqueous solution without PLA enzyme (spontaneous hydrolysis, falsely positive signal); type: physicochemical; conditions: for Signal increase relative to noise in the absence of enzyme (stability to spontaneous hydrolysis): 100 μM, 660 minutes, buffered pH ~7.6, no PLA, FIG. 4
Method: as §1, §2, §3
A series of control measurements of background fluorescence was carried out, with wells containing some enzyme in the standard buffer without any probe. A last series of measurements was conducted by using a solution of probe I.1 prepared three weeks beforehand (“3 wks”), in order to obtain another estimation of the robustness of this probe towards spontaneous hydrolysis in practice. Each readout lasted for 3 seconds per well. […]

[4] = actual 10 μM, plateau not reached, underestimated
[5] = actual 18 μM, plateau not reached, underestimated

Structure (SMILES)	Solubility in water [1]	Predicted Conc. (initial probe concentration estimated from the average ratio) [2, 4]	Predicted Conc. (initial probe concentration estimated from the average ratio) [2, 5]	Predicted Conc. (initial probe concentration estimated from the average ratio) ([2]; actual 32 μM)	Predicted Conc. (initial probe concentration estimated from the average ratio) ([2]; actual 59 μM)	Predicted Conc. (initial probe concentration estimated from the average ratio) ([2]; actual 100 μM)	Predicted Conc. (initial probe concentration estimated from the average ratio) ([2]; actual 378 μM, 3 wks stored solution)	Signal/Conc. (signal plateau/concentration ratio) ([2]; probe 32 μM, with PLA)	Signal/Conc. (signal plateau/concentration ratio) ([2]; probe 59 μM, with PLA)	Signal/Conc. (signal plateau/concentration ratio) ([2]; probe 100 μM, with PLA)	Signal/Conc. (signal plateau/concentration ratio) ([2]; probe 378 μM, 3 wks stored solution, with PLA)	Photo-degradation: signals once the plateau is reached, under irradiation of the fluorescence reader ([2]; with PLA, 11 h acquisition, FIG. 6)	Delay for obtaining an intense increase in the signal ([2]; with PLA)	Signal increase relative to noise in the absence of enzyme (stability to spontaneous hydrolysis) [3]	Falsely positive signal due to spontaneous hydrolysis of the probe ([3]; probe 209 μM and 80 μM without enzyme, 40 hours of incubation, FIG. 1)	Degradation in the absence of enzyme ([3]; probe 100 μM without enzyme, FIG. 3)
CC(C)C[C@H](N)C(=O)NCC1CCCCN1C(=O)Oc1ccccc1-c1nc2ccccc2c(=O)[nH]1 (some centres unmarked) [I.1]	not very soluble in water	0 µM	6 µM	26 µM	42 µM	108 µM	419 µM	72794 RFU μM^−1	63054 RFU μM^−1	95711 RFU μM^−1	98684 RFU μM^−1	do not decrease over time	about 10 minutes	NO signal increase	absence of any falsely positive signal due to spontaneous hydrolysis of the probe	
CC(C)C[C@H](N)C(=O)NCC(C)(C)N(C)C(=O)Oc1ccccc1-c1nc2ccccc2c(=O)[nH]1 [I.2]		1 µM	6 µM	40 µM	63 µM	98 µM		110289 RFU μM^−1	95096 RFU μM^−1	87269 RFU μM^−1			about 10 minutes	NO signal increase		does not degrade in the absence of enzyme
